Experimental data taken from patent US20110002855A1 (NEUROGEN CORPORATION, priority 2007, published 2011).

target: T1, chimeric human H3 receptor (Homo sapiens, UniProt Q9Y5N1); experiment: Chimeric human H3 receptor screening GTP binding assay at 4 μM (Example 8); type: biochemical; settings: test compound 4 μM, 1 μM histamine, P2 membranes of Sf9 cells; read-out: % (percent inhibition of agonist-induced GTP-gammaS binding to H3)
T1 construct: made in house; host or cells: Sf9 insect cells (baculovirus); P2 membrane preparation
Protocol: This Example illustrates a representative screening assay for evaluating inhibition of histamine-stimulated GTP-gamma^35S binding. Such GTP binding activity can be used to identify H3 antagonists and inverse agonists. A compound analyzed in this assay is referred to herein as a “test compound,” and the initial identification of antagonists and inverse agonists is performed using a test compound concentration of 4 μM.
Four independent baculoviral stocks (one directing the expression of the chimeric human H3 receptor and three directing the expression of each of the three subunits of a heterotrimeric G-protein) are used to infect a culture of Sf9 cells as described above. P2 membranes are prepared as described above, and are resuspended by Dounce homogenization (tight pestle) in GTP binding assay buffer (50 mM Tris pH 7.4, 120 mM NaCl, 5 mM MgCl2, 2 mM EGTA, 1 mg/ml BSA, 0.2 mg/ml bacitracin, 0.02 mg/ml aprotinin, 0.01 mg/ml saponin, 10 μM GDP) and added to assay tubes at a concentration of 35 μg protein/reaction tube. Non-radiolabeled test compounds are added to separate reactions at a concentration of 4 μM along with 1 μM histamine (agonist). Reactions are initiated by the addition of 125 pM GTP-gamma^35S with a final assay volume of 0.20 ml.
After a 60-min incubation at room temperature, reactions are terminated by vacuum filtration over GF/C filters (pre-soaked in 50 mM Tris pH 7.4, 120 mM NaCl plus 0.1% BSA) followed by washing with ice-cold buffer (50 mM Tris pH 7.4, 120 mM NaCl). The amount of receptor-bound (and thereby membrane-bound) GTP-gamma^35S is determined by measuring the bound radioactivity, preferably by liquid scintillation spectrometry of the washed filters. Non-specific binding is determined using 10 uM GTP-gammaS and typically represents less than 5 percent of total binding. After subtraction of non-specific binding, data is expressed as percent inhibition of 1 μM histamine signal.
Neutral antagonists are those test compounds that reduce the histamine-stimulated GTP binding activity towards, but not below, baseline levels. In contrast, in the absence of added histamine, inverse agonists reduce the GTP binding activity of the receptor-containing membranes below baseline. Any test compound that elevates GTP binding activity above baseline in the absence of added histamine in this assay is defined as having agonist activity.

T1 sequence (Q9Y5N1 with tags, fused parts or gaps): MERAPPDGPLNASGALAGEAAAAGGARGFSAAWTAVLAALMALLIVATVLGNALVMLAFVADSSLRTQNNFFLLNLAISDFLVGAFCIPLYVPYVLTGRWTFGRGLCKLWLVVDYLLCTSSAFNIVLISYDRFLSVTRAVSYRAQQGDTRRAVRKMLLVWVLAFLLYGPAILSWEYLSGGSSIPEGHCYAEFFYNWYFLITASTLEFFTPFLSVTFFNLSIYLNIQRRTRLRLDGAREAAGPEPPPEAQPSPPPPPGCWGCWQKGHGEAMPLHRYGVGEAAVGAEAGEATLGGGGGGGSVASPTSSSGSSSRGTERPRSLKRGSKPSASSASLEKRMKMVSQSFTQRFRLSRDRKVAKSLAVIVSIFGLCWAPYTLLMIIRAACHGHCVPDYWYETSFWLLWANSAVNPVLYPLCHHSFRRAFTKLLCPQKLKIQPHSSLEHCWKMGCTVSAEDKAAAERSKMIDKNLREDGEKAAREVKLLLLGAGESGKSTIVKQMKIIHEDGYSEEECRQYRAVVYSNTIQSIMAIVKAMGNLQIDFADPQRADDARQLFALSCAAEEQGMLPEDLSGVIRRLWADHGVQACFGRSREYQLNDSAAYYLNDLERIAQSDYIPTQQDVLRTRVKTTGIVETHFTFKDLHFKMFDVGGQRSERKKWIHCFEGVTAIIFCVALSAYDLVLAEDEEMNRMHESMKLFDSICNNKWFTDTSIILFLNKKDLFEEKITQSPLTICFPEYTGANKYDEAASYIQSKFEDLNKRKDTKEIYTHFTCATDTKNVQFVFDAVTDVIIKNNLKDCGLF

**Q.** Which inhibition at 4 µM does the source give for `CN1CCC(N(C)C(=O)CN2CCc3c([nH]c4ccccc34)C2)CC1` [Compound 43] here?
**A.** The inhibition at 4 µM was ≥ 90%.

**Q.** Which inhibition at 4 µM does the source give for `COCCN(C(=O)CN1CCc2c([nH]c3ccccc23)C1)C1CCN(C)CC1` [Compound 54, N-(2-Methoxyethyl)-N-(1-methylpiperidin-4-yl)-2-(1,3,4,9-tetrahydro-2H-beta-carbolin-2-yl)acetamide] here?
**A.** The inhibition at 4 µM was ≥ 90%.

**Q.** How did the inhibition at 4 µM turn out when `O=C(CN1CCc2c([nH]c3ccccc23)C1)N1CCN(C2CCCCC2)CC1` [Compound 41, 2-[2-(4-Cyclohexylpiperazin-1-yl)-2-oxoethyl]-2,3,4,9-tetrahydro-1H-beta-carboline] was run?
**A.** Its inhibition at 4 µM is ≥ 90%.

**Q.** With `CCN(CC)C1CCN(C(=O)CN2CCc3c([nH]c4ccccc34)C2)CC1` [Compound 46, N,N-Diethyl-1-(1,3,4,9-tetrahydro-2H-beta-carbolin-2-ylacetyl)piperidin-4-amine] as the compound, how does the inhibition at 4 µM read?
**A.** Its inhibition at 4 µM is ≥ 90%.

**Q.** How did the inhibition at 4 µM turn out when `CC1CCCCN1C1CCN(C(=O)CN2CCc3c([nH]c4ccccc34)C2)CC1` (stereo not drawn) [Compound 34, 2-[2-(2-Methyl-1,4′-bipiperidin-1′-yl)-2-oxoethyl]-2,3,4,9-tetrahydro-1H-beta-carboline] was run?
**A.** The inhibition at 4 µM was ≥ 90%.

**Q.** How did the inhibition at 4 µM turn out when `O=C(CN1CCc2c([nH]c3ccccc23)C1)N1CCN(C2CCCC2)CC1` [Compound 45, 2-[2-(4-Cyclopentylpiperazin-1-yl)-2-oxoethyl]-2,3,4,9-tetrahydro-1H-beta-carboline] was run?
**A.** Its inhibition at 4 µM is ≥ 90%.

**Q.** `CCCCN1CCCN(C(=O)CN2CCc3c([nH]c4ccccc34)C2)CC1` [Compound 47, 2-[2-(4-Butyl-1,4-diazepan-1-yl)-2-oxoethyl]-2,3,4,9-tetrahydro-1H-beta-carboline] was tested. Which inhibition at 4 µM did it give?
**A.** Its inhibition at 4 µM is ≥ 90%.

**Q.** With `CCN(CC)C1CCN(C(=O)CN2CCc3c([nH]c4ccccc34)C2)C1` (stereo not drawn) [Compound 49, N,N-Diethyl-1-(1,3,4,9-tetrahydro-2H-beta-carbolin-2-ylacetyl)pyrrolidin-3-amine] as the compound, how does the inhibition at 4 µM read?
**A.** Its inhibition at 4 µM is ≥ 90%.

**Q.** With `CN(CCN1CCCC1)C(=O)CN1CCc2c([nH]c3ccccc23)C1` [Compound 63] as the compound, how does the inhibition at 4 µM read?
**A.** Its inhibition at 4 µM is ≥ 90%.

**Q.** With `O=C(CN1CCc2c([nH]c3ccccc23)C1)N1CCN(CCCN2CCCCC2)CC1` [Compound 57, 2-{2-Oxo-2-[4-(3-piperidin-1-ylpropyl)piperazin-1-yl]ethyl}-2,3,4,9-tetrahydro-1H-beta-carboline] as the compound, how does the inhibition at 4 µM read?
**A.** Its inhibition at 4 µM is ≥ 90%.

**Q.** Which inhibition at 4 µM does the source give for `O=C(CN1CCc2c([nH]c3ccccc23)C1)N1CCN(C2CCOCC2)CC1` [Compound 40, 2-{2-Oxo-2-[4-(tetrahydro-2H-pyran-4-yl)piperazin-1-yl]ethyl}-2,3,4,9-tetrahydro-1H-beta-carboline] here?
**A.** The inhibition at 4 µM was ≥ 90%.

**Q.** With `O=C(CN1CCc2c([nH]c3ccccc23)C1)N1CCCN(C2CCC2)CC1` [Compound 37, 2-[2-(4-Cyclobutyl-1,4-diazepan-1-yl)-2-oxoethyl]-2,3,4,9-tetrahydro-1H-beta-carboline] as the compound, how does the inhibition at 4 µM read?
**A.** Its inhibition at 4 µM is ≥ 90%.

**Q.** How did the inhibition at 4 µM turn out when `CCCN(CC1CC1)C1CCN(C(=O)CN2CCc3c([nH]c4ccccc34)C2)CC1` [Compound 51, N-(Cyclopropylmethyl)-N-propyl-1-(1,3,4,9-tetrahydro-2H-beta-carbolin-2-ylacetyl)piperidin-4-amine] was run?
**A.** The inhibition at 4 µM was ≥ 90%.

**Q.** How did the inhibition at 4 µM turn out when `O=C(CN1CCc2c([nH]c3ccccc23)C1)N1CCC(N2CCCCC2)CC1` [Compound 53, 2-[2-(1,4′-Bipiperidin-1′-yl)-2-oxoethyl]-2,3,4,9-tetrahydro-1H-beta-carboline] was run?
**A.** Its inhibition at 4 µM is ≥ 90%.

**Q.** With `CCN(C(=O)CN1CCc2c([nH]c3ccccc23)C1)C1CCN(C)CC1` [Compound 62, N-(1-Methylpiperidin-4-yl)-N-ethyl-2-(1,3,4,9-tetrahydro-2H-beta-carbolin-2-yl)acetamide] as the compound, how does the inhibition at 4 µM read?
**A.** Its inhibition at 4 µM is ≥ 90%.

**Q.** For `CN(C)CCCN(C(=O)CN1CCc2c([nH]c3ccccc23)C1)C1CCN(C)CC1` [Compound 61, N-[3-(Dimethylamino)propyl]-N-(1-methylpiperidin-4-yl)-2-(1,3,4,9-tetrahydro-2H-beta-carbolin-2-yl)acetamide], which inhibition at 4 µM is on record?
**A.** The inhibition at 4 µM was ≥ 90%.

**Q.** For `CC(C)N1CCCN(C(=O)CN2CCc3c([nH]c4ccccc34)C2)CC1` [Compound 36, 2-[2-(4-Isopropyl-1,4-diazepan-1-yl)-2-oxoethyl]-2,3,4,9-tetrahydro-1H-beta-carboline], which inhibition at 4 µM is on record?
**A.** Its inhibition at 4 µM is ≥ 90%.

**Q.** For `O=C(CN1CCc2c([nH]c3ccccc23)C1)N1CCN(CCN2CCCCC2)CC1` [Compound 56, 2-{2-Oxo-2-[4-(2-piperidin-1-ylethyl)piperazin-1-yl]ethyl}-2,3,4,9-tetrahydro-1H-beta-carboline], which inhibition at 4 µM is on record?
**A.** The inhibition at 4 µM was ≥ 90%.

**Q.** With `CC(C)CN1CCN(C(=O)CN2CCc3c([nH]c4ccccc34)C2)CC1` [Compound 50, 2-[2-(4-Isobutylpiperazin-1-yl)-2-oxoethyl]-2,3,4,9-tetrahydro-1H-beta-carboline] as the compound, how does the inhibition at 4 µM read?
**A.** Its inhibition at 4 µM is ≥ 90%.

**Q.** How did the inhibition at 4 µM turn out when `O=C(CN1CCc2c([nH]c3ccccc23)C1)N1CCN(CCN2CCCC2)CC1` [Compound 58, 2-{2-Oxo-2-[4-(2-pyrrolidin-1-ylethyl)piperazin-1-yl]ethyl}-2,3,4,9-tetrahydro-1H-beta-carboline] was run?
**A.** The inhibition at 4 µM was ≥ 90%.

**Q.** Which inhibition at 4 µM does the source give for `CCN1CCN(C(=O)CN2CCc3c([nH]c4ccccc34)C2)CC1` [Compound 42, 2-[2-(4-Ethylpiperazin-1-yl)-2-oxoethyl]-2,3,4,9-tetrahydro-1H-beta-carboline] here?
**A.** Its inhibition at 4 µM is ≥ 90%.

**Q.** Which inhibition at 4 µM does the source give for `CC(c1ccccc1)N1CCN(C(=O)CN2CCc3c([nH]c4ccccc34)C2)CC1` (stereo not drawn) [Compound 59, 2-{2-Oxo-2-[4-(1-phenylethyl)piperazin-1-yl]ethyl}-2,3,4,9-tetrahydro-1H-beta-carboline] here?
**A.** Its inhibition at 4 µM is ≥ 90%.

**Q.** For `CCCN(C(=O)CN1CCc2c([nH]c3ccccc23)C1)C1CCN(C)CC1` [Compound 60, N-(1-Methylpiperidin-4-yl)-N-propyl-2-(1,3,4,9-tetrahydro-2H-beta-carbolin-2-yl)acetamide], which inhibition at 4 µM is on record?
**A.** Its inhibition at 4 µM is ≥ 90%.

**Q.** `CC1CCCC1N1CCN(C(=O)CN2CCc3c([nH]c4ccccc34)C2)CC1` (stereo not drawn) [Compound 38, 2-{2-[4-(2-Methylcyclopentyl)piperazin-l-yl]-2-oxoethyl}-2,3,4,9-tetrahydro-1H-beta-carboline] was tested. Which inhibition at 4 µM did it give?
**A.** The inhibition at 4 µM was ≥ 90%.

**Q.** For `CCCCN1CCN(C(=O)CN2CCc3c([nH]c4ccccc34)C2)CC1` [Compound 48, 2-[2-(4-Butylpiperazin-1-yl)-2-oxoethyl]-2,3,4,9-tetrahydro-1H-beta-carboline], which inhibition at 4 µM is on record?
**A.** Its inhibition at 4 µM is ≥ 90%.

**Q.** Which inhibition at 4 µM does the source give for `O=C(CN1CCc2c([nH]c3ccccc23)C1)N1CCC(N2CCCC2)CC1` [Compound 52, 2-[2-Oxo-2-(4-pyrrolidin-1-ylpiperidin-1-yl)ethyl]-2,3,4,9-tetrahydro-1H-beta-carboline] here?
**A.** The inhibition at 4 µM was ≥ 90%.

**Q.** With `O=C(CN1CCc2c([nH]c3ccccc23)C1)N1CCC(N2CCCC2)C1` (stereo not drawn) [Compound 39, 2-[2-(1,3′-Bipyrrolidin-1′-yl)-2-oxoethyl]-2,3,4,9-tetrahydro-1H-beta-carboline] as the compound, how does the inhibition at 4 µM read?
**A.** The inhibition at 4 µM was ≥ 90%.

**Q.** `O=C(CN1CCc2c([nH]c3ccccc23)C1)N1CCN(CCCN2CCCC2)CC1` [Compound 55, 2-{2-Oxo-2-[4-(3-pyrrolidin-1-ylpropyl)piperazin-1-yl]ethyl}-2,3,4,9-tetrahydro-1H-beta-carboline] was tested. Which inhibition at 4 µM did it give?
**A.** Its inhibition at 4 µM is ≥ 90%.

**Q.** Which inhibition at 4 µM does the source give for `C=CCN1CCN(C(=O)CN2CCc3c([nH]c4ccccc34)C2)CC1` [Compound 35, 2-[2-(4-Allylpiperazin-1-yl)-2-oxoethyl]-2,3,4,9-tetrahydro-1H-beta-carboline] here?
**A.** The inhibition at 4 µM was ≥ 90%.

**Q.** How did the inhibition at 4 µM turn out when `CCCN1CCN(C(=O)CN2CCc3c([nH]c4ccccc34)C2)CC1` [Compound 44, 2-[2-(4-propylpiperazin-1-yl)-2-oxoethyl]-2,3,4,9-tetrahydro-1H-beta-carboline] was run?
**A.** The inhibition at 4 µM was ≥ 90%.
